{"source": "patent US11203600B2", "about": "(Denali Therapeutics Inc., priority 2017, dated 2021)", "molecular_target": "GST-hRIPK1 (8-327) (Homo sapiens (Human), UniProt Q13546)", "sequence (Q13546 8-327)": "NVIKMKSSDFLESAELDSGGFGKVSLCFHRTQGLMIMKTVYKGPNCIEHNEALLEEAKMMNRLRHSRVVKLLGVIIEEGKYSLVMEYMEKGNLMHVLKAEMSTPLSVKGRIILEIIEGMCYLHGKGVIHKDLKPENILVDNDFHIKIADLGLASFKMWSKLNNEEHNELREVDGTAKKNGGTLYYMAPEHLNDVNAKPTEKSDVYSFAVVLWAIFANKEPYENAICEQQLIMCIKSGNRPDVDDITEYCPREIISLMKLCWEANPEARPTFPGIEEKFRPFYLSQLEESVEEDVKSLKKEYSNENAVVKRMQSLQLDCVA", "assay": "Fluorescent Polarization Binding (FP Binding) assay, RIPK1", "settings": "mean of at least two independent experiments", "description": "Fluorescent Polarization Binding (FP Binding) assay (Berger S. B. et al. (2015) Cell Death Discovery, 1: 15009; Maki J. L. et al. (2012) Anal Biochem., 427(2): 164-174) was performed in polystyrene low volume 384-well black plate, at RT in a final volume of 10.1 μl/well using 10 nM of GST-hRIPK1 (8-327) enzyme and 5 nM of fluorescent-labeled ligand (14-(2-{[3-({2-{[4-(cyanomethyl)phenyl]amino]-6-[(5-cyclopropyl-1H-pyrazol-3-yl)amino]-4-pyrimidinyl}amino) propyl}amino}-2-oxoethyl)-16,16,18,18-tetramethyl-6,7,7a,8a,9,10,16,18-octahydrobenzo [2″,3″]indolizino[8″,7″:5′,6′]pyrano [3′,2′:3,4]pyrido[1,2-a]indo1-5-ium-2-sulfonate.\nTest compounds were serially diluted in DMSO at 100 fold final concentrations in the assay (1% DMSO final). In each well of a 384-well Plate were dispensed 0.1 μL of compound solution (or DMSO for controls) followed by 5 μL of GST-hRIPK1 (8-327) at twice the final concentrations in assay buffer (50 mM HEPES pH 7.5, 10 mM NaCl, 50 mM MgCl2, 0.02% CHAPS, 0.5 mM DTT and 0.01% Pluronic F127). For negative control the enzyme addition was replaced by assay buffer only.\nAfter addition of 5 μL of fluorescentlabeled ligand at twice the final concentrations in assay buffer, the plate was incubated at RT for […]. At the end, the binding was measured as FP value with the Envision (PerkinElmer) plate reader using filter for an excitation λ=531 nm FP and an emission λ=595 nm FP (S & P-pol). GST-hRIPK1 (8-327) enzyme was produced via Baculovirus expression.\nTest compound inhibition was expressed as percent inhibition of internal assay controls. For concentration response curves, normalized data is fit and IC50 determined using XL-fit (IDBS) for Excel. The IC50 values were averaged to determine a mean value, for a minimum of two independent experiments. Results are shown in Table 2 (RIPK1 IC50) values: +++=0.1 nM<IC50<100 nM; ++=100 nM<IC50<1 μM; +=1 μM<IC50).", "key": {"[1]": {"settings": "10 nM GST-hRIPK1 (8-327), 5 nM fluorescent-labeled ligand, RT, 30 min"}}}
{"smiles": "N#Cc1cncc2c1OCCN(C(=O)C1CCN(c3nccn4ncnc34)CC1F)C2", "note": "(single isomer, unassigned) [Example 301, 4-[3-Fluoro-1-([1,2,4]triazolo[1,5-a]pyrazin-8-yl)piperidine-4-carbonyl]-3,5-dihydro-2H-pyrido[3,4-f][1,4]oxazepine-9-carbonitrile]", "values": [{"measurement": "IC50", "setting": "GST-hRIPK1 (8-327)", "result": "100 to 1000", "unit": "nM"}]}
{"smiles": "N#Cc1cncc2c1OCCN(C(=O)C1CCN(c3nccn4ncnc34)CC1F)C2", "note": "(single isomer, unassigned) [Example 302, 4-[3-Fluoro-1-([1,2,4]triazolo[1,5-a]pyrazin-8-yl)piperidine-4-carbonyl]-3,5-dihydro-2H-pyrido[3,4-f][1,4]oxazepine-9-carbonitrile]", "values": [{"measurement": "IC50", "setting": "GST-hRIPK1 (8-327)", "result": "0.1 to 100", "unit": "nM"}]}
{"smiles": "N#Cc1cncc2c1OCCN(C(=O)C1CCN(c3ccnc4c(F)cnn34)CC1F)C2", "note": "(single isomer, unassigned) [Example 303, 4-[3-Fluoro-1-(3-fluoropyrazolo[1,5-a]pyrimidin-7-yl)piperidine-4-carbonyl]-3,5-dihydro-2H-pyrido[3,4-f][1,4]oxazepine-9-carbonitrile]", "values": [{"measurement": "IC50", "setting": "GST-hRIPK1 (8-327)", "result": "100 to 1000", "unit": "nM"}]}
{"smiles": "N#Cc1cncc2c1OCCN(C(=O)C1CCN(c3ccnc4c(F)cnn34)CC1F)C2", "note": "(single isomer, unassigned) [Example 304, 4-[3-Fluoro-1-(3-fluoropyrazolo[1,5-a]pyrimidin-7-yl)piperidine-4-carbonyl]-3,5-dihydro-2H-pyrido[3,4-f][1,4]oxazepine-9-carbonitrile]", "values": [{"measurement": "IC50", "setting": "GST-hRIPK1 (8-327)", "result": "0.1 to 100", "unit": "nM"}]}
{"smiles": "N#Cc1cncc2c1OCCN(C(=O)C1CCN(c3ncc(F)cn3)CC1F)C2", "note": "(single isomer, unassigned) [Example 305, 4-[3-Fluoro-1-(5-fluoropyrimidin-2-yl)piperidine-4-carbonyl]-3,5-dihydro-2H-pyrido[3,4-f][1,4]oxazepine-9-carbonitrile]", "values": [{"measurement": "IC50", "setting": "GST-hRIPK1 (8-327)", "result": "100 to 1000", "unit": "nM"}]}
{"smiles": "N#Cc1cncc2c1OCCN(C(=O)C1CCN(c3ncc(F)cn3)CC1F)C2", "note": "(single isomer, unassigned) [Example 306, 4-[3-Fluoro-1-(5-fluoropyrimidin-2-yl)piperidine-4-carbonyl]-3,5-dihydro-2H-pyrido[3,4-f][1,4]oxazepine-9-carbonitrile]", "values": [{"measurement": "IC50", "setting": "GST-hRIPK1 (8-327)", "result": "0.1 to 100", "unit": "nM"}]}
{"smiles": "N#Cc1cncc2c1OCCN(C(=O)C1CCN(c3ncc(F)cn3)CC1(F)F)C2", "note": "(single isomer, unassigned) [Example 307, 4-[3,3-Difluoro-1-(5-fluoropyrimidin-2-yl)piperidine-4-carbonyl]-3,5-dihydro-2H-pyrido[3,4-f][1,4]oxazepine-9-carbonitrile]", "values": [{"measurement": "IC50", "setting": "GST-hRIPK1 (8-327)", "result": "100 to 1000", "unit": "nM"}]}
{"smiles": "N#Cc1cncc2c1OCCN(C(=O)C1CCN(c3ncc(F)cn3)CC1(F)F)C2", "note": "(single isomer, unassigned) [Example 308, 4-[3,3-Difluoro-1-(5-fluoropyrimidin-2-yl)piperidine-4-carbonyl]-3,5-dihydro-2H-pyrido[3,4-f][1,4]oxazepine-9-carbonitrile]", "values": [{"measurement": "IC50", "setting": "GST-hRIPK1 (8-327)", "result": "0.1 to 100", "unit": "nM"}]}
{"smiles": "O=C(C1CC(F)(F)C1)N1CCOc2ccccc2C1", "note": "[Example 1, (3,3-difluorocyclobutyl)(2,3-dihydrobenzo[f][1,4]oxazepin-4(5H)-yl)methanone]", "values": [{"measurement": "IC50", "setting": "[1]", "result": "> 1000", "unit": "nM"}]}
{"smiles": "CC(C)(C(=O)N1CCOc2c(C#N)ccc(F)c2C1)C(F)F", "note": "[Example 2, 4-(3,3-difluoro-2,2-dimethyl-propanoyl)-6-fluoro-3,5-dihydro-2H-1,4-benzoxazepine-9-carbonitrile]", "values": [{"measurement": "IC50", "setting": "[1]", "result": "0.1 to 100", "unit": "nM"}]}
{"smiles": "CC(C)(C)C(=O)N1CCCc2ccccc2C1", "note": "[Example 3, 2,2-dimethyl-1-(1,3,4,5-tetrahydro-2-benzazepin-2-yl)propan-1-one]", "values": [{"measurement": "IC50", "setting": "[1]", "result": "100 to 1000", "unit": "nM"}]}
{"smiles": "CCC(C)(C)C(=O)N1CCCc2ccccc2C1", "note": "[Example 4, 2,2-dimethyl-1-(1,3,4,5-tetrahydro-2-benzazepin-2-yl)butan-1-one]", "values": [{"measurement": "IC50", "setting": "[1]", "result": "100 to 1000", "unit": "nM"}]}
{"smiles": "CC(C)(C(=O)N1CCCc2ccccc2C1)C(F)F", "note": "[Example 5, 3,3-difluoro-2,2-dimethyl-1-(1,3,4,5-tetrahydro-2-benzazepin-2-yl)propan-1-one]", "values": [{"measurement": "IC50", "setting": "[1]", "result": "100 to 1000", "unit": "nM"}]}
{"smiles": "CCC(C)(C)C(=O)N1CCOc2ccccc2C1", "note": "[Example 6, 1-(3,5-dihydro-2H-1,4-benzoxazepin-4-yl)-2,2-dimethyl-butan-1-one]", "values": [{"measurement": "IC50", "setting": "[1]", "result": "0.1 to 100", "unit": "nM"}]}
{"smiles": "CC(C)(C(=O)N1CCOc2ccccc2C1)C(F)F", "note": "[Example 7, 1-(3,5-dihydro-2H-1,4-benzoxazepin-4-yl)-3,3-difluoro-2,2-dimethyl-propan-1-one]", "values": [{"measurement": "IC50", "setting": "[1]", "result": "0.1 to 100", "unit": "nM"}]}
{"smiles": "O=C(C1CCN(c2ncc(F)cn2)CC1)N1CCOc2ccccc2C1", "note": "[Example 8, 3,5-dihydro-2H-1,4-benzoxazepin-4-yl-[1-(5-fluoropyrimidin-2-yl)-4-piperidyl]methanone]", "values": [{"measurement": "IC50", "setting": "[1]", "result": "0.1 to 100", "unit": "nM"}]}
{"smiles": "CC1(C(=O)N2CCOc3ccccc3C2)CCN(c2ncc(F)cn2)CC1", "note": "[Example 9, 3,5-dihydro-2H-1,4-benzoxazepin-4-yl-[1-(5-fluoropyrimidin-2-yl)-4-methyl-4-piperidyl]methanone]", "values": [{"measurement": "IC50", "setting": "[1]", "result": "0.1 to 100", "unit": "nM"}]}
{"smiles": "CC(C)(C(=O)N1CCOc2ccc(Cl)cc2C1)C(F)F", "note": "[Example 10, 1-(7-chloro-2,3-dihydrobenzo[f][1,4]oxazepin-4(5H)-yl)-3,3-difluoro-2,2-dimethylpropan-1-one]", "values": [{"measurement": "IC50", "setting": "[1]", "result": "100 to 1000", "unit": "nM"}]}
{"smiles": "Cc1ccc2c(c1)CN(C(=O)C(C)(C)C(F)F)CCO2", "note": "[Example 11, 3,3-difluoro-2,2-dimethyl-1-(7-methyl-2,3-dihydrobenzo[f][1,4]oxazepin-4(5H)-yl)propan-1-one]", "values": [{"measurement": "IC50", "setting": "[1]", "result": "100 to 1000", "unit": "nM"}]}
{"smiles": "COc1ccc2c(c1)OCCN(C(=O)C(C)(C)C(F)F)C2", "note": "[Example 12, 3,3-difluoro-1-(8-methoxy-3,5-dihydro-2H-14-benzoxazepin-4-yl)-2,2-dimethyl-propan-1-one]", "values": [{"measurement": "IC50", "setting": "[1]", "result": "100 to 1000", "unit": "nM"}]}
{"smiles": "CC(C)(C(=O)N1CCOc2c(F)cccc2C1)C(F)F", "note": "[Example 13, 3,3-difluoro-1-(9-fluoro-2,3-dihydrobenzo[f][1,4]oxazepin-4(5H)-yl)-2,2-dimethylpropan-1-one]", "values": [{"measurement": "IC50", "setting": "[1]", "result": "0.1 to 100", "unit": "nM"}]}
{"smiles": "CC(C)(CC#N)C(=O)N1CCOc2c(F)cccc2C1", "note": "[Example 14, 4-(9-fluoro-3,5-dihydro-2H-1,4-benzoxazepin-4-yl)-3,3-dimethyl-4-oxo-butanenitrile]", "values": [{"measurement": "IC50", "setting": "[1]", "result": "0.1 to 100", "unit": "nM"}]}
{"smiles": "CC(C)(C(=O)N1CCOc2c(F)cccc2C1)C1CC1", "note": "[Example 15, 2-cyclopropyl-1-(9-fluoro-3,5-dihydro-2H-1,4-benzoxazepin-4-yl)-2-methyl-propan-1-one]", "values": [{"measurement": "IC50", "setting": "[1]", "result": "0.1 to 100", "unit": "nM"}]}
{"smiles": "CC(C)(CC(F)F)C(=O)N1CCOc2c(F)cccc2C1", "note": "[Example 16, 4,4-difluoro-1-(9-fluoro-3,5-dihydro-2H-1,4-benzoxazepin-4-yl)-2,2-dimethyl-butan-1-one]", "values": [{"measurement": "IC50", "setting": "[1]", "result": "0.1 to 100", "unit": "nM"}]}
{"smiles": "CC(C(=O)N1CCOc2c(F)cccc2C1)C(F)(F)F", "note": "(stereo not drawn) [Example 17, 3,3,3-trifluoro-1-(9-fluoro-3,5-dihydro-2H-1,4-benzoxazepin-4-yl)-2-methyl-propan-1-one]", "values": [{"measurement": "IC50", "setting": "[1]", "result": "> 1000", "unit": "nM"}]}
{"smiles": "CC(F)(F)C(C)(C)C(=O)N1CCOc2c(F)cccc2C1", "note": "[Example 18, 3,3-difluoro-1-(9-fluoro-3,5-dihydro-2H-1,4-benzoxazepin-4-yl)-2,2-dimethyl-butan-1-one]", "values": [{"measurement": "IC50", "setting": "[1]", "result": "0.1 to 100", "unit": "nM"}]}
{"smiles": "O=C(C(C1CC1)C1CC1)N1CCOc2c(F)cccc2C1", "note": "[Example 19, 2,2-dicyclopropyl-1-(9-fluoro-3,5-dihydro-2H-1,4-benzoxazepin-4-yl)ethanone]", "values": [{"measurement": "IC50", "setting": "[1]", "result": "> 1000", "unit": "nM"}]}
{"smiles": "CC(C)(C(=O)N1CCOc2cccc(F)c2C1)C(F)F", "note": "[Example 20, 3,3-difluoro-1-(6-fluoro-2,3-dihydrobenzo[f][1,4]oxazepin-4(5H)-yl)-2,2-dimethylpropan-1-one]", "values": [{"measurement": "IC50", "setting": "[1]", "result": "0.1 to 100", "unit": "nM"}]}
{"smiles": "CC1COc2ccccc2CN1C(=O)C(C)(C)C(F)F", "note": "(stereo not drawn) [Example 21, 3,3-difluoro-2,2-dimethyl-1-(3-methyl-2,3-dihydrobenzo[f][1,4]oxazepin-4(5H)-yl)propan-1-one]", "values": [{"measurement": "IC50", "setting": "[1]", "result": "0.1 to 100", "unit": "nM"}]}
{"smiles": "CC(C)(C(=O)N1CCOc2c(C#N)cc(F)cc2C1)C(F)F", "note": "[Example 22, 4-(3,3-difluoro-2,2-dimethyl-propanoyl)-7-fluoro-3,5-dihydro-2H-1,4-benzoxazepine-9-carbonitrile]", "values": [{"measurement": "IC50", "setting": "[1]", "result": "0.1 to 100", "unit": "nM"}]}
{"smiles": "CC(C)(C(=O)N1CCOc2c(C#N)cccc2C1)C(F)F", "note": "[Example 23, 4-(3,3-difluoro-2,2-dimethyl-propanoyl)-3,5-dihydro-2H-1,4-benzoxazepine-9-carbonitrile]", "values": [{"measurement": "IC50", "setting": "[1]", "result": "0.1 to 100", "unit": "nM"}]}
{"smiles": "CC1(C(=O)N2CCOc3c(C#N)cccc3C2)CCN(c2ncc(F)cn2)CC1", "note": "[Example 24, 4-[1-(5-fluoropyrimidin-2-yl)-4-methyl-piperidine-4-carbonyl]-3,5-dihydro-2H-1,4-benzoxazepine-9-carbonitrile]", "values": [{"measurement": "IC50", "setting": "[1]", "result": "0.1 to 100", "unit": "nM"}]}
{"smiles": "CC(C)(CC#N)C(=O)N1CCOc2c(C#N)cccc2C1", "note": "[Example 25, 4-(3-cyano-2,2-dimethyl-propanoyl)-3,5-dihydro-2H-1,4-benzoxazepine-9-carbonitrile]", "values": [{"measurement": "IC50", "setting": "[1]", "result": "0.1 to 100", "unit": "nM"}]}
